According to publication PMC10241580, “Bioassay-Guided Isolation of Antiplasmodial Compounds from Hypericum lanceolatum Lam. (Hypericaceae) and Their Cytotoxicity and Molecular Docking” (BioMed Research International, 2023):
Converted amounts (≈) assume the structure as drawn.

Tests used:
[1] = In vitro cytotoxicity MTT assay on P388 cell line; assay type: cell-based; details: mouse, mean ± SD (n = 3)
Method: The in vitro study of the cytotoxicity potency of the isolated compounds was performed using the P388 (mouse leukaemia) cell line which was obtained from the American Type Culture Collection (ATCC) (Rockville, MD, USA). The cells were arranged in 96-well plates at a density of 10^4 cells per well containing […] of culture medium and then cultured for 24 h in the opti-MEM medium supplemented with 2 mM glutamine (Gibco, Grand Island, NY, USA), streptomycin (50 μg/mL), penicillin (50 U/mL), and 5% fetal calf serum (Gibco). After the cell cultures were maintained at 37°C in an atmosphere saturated with 5% CO2, the four tested compounds prepared at the concentration of 1 mg/mL by dissolving in the mixture DMSO/culture medium (1 : 9) were diluted in cell culture to reach the required concentrations (ranging from 1 to 100 μg/mL). The in vitro cytotoxic activity of the tested compounds was evaluated using the MTT assay for leukaemia cells.

Plasmodium parasite = test system: Plasmodium parasite; parameters: method as in doi:10.1016/j.sajb.2022.11.021; details: in words; cited from earlier work

SMILES	IC50 ([1]; P388 cells) [µg/mL]	IC50 ([1]; P388 leukaemia cells) [µg/mL]	Antiplasmodial potency (Plasmodium parasite)
O=c1c2ccc(O)cc2oc2cccc(O)c12 [Compound 1, 1,6-dihydroxyxanthone]	17.6 ± 0.7 (≈ 77.1 µM)		
O=c1c2cc(O)c(O)cc2oc2cc(O)cc(O)c12 [Compound 2, norathyriol]		21.8 ± 0.3 (≈ 83.8 µM)	
C=C(C)[C@@H]1CC[C@]2(C(=O)O)CC[C@]3(C)[C@H](CC[C@@H]4[C@@]5(C)CC[C@H](O)C(C)(C)[C@@H]5CC[C@]43C)[C@@H]12 [Compound 3, betulinic acid]	6.8 ± 2.2 (≈ 14.9 µM)		
C[C@H]1[C@H](C)CC[C@]2(C(=O)O)CC[C@]3(C)C(=CC[C@@H]4[C@@]5(C)CC[C@H](O)C(C)(C)[C@@H]5CC[C@]43C)[C@H]12 [Compound 4, ursolic acid]		2.5 ± 0.6 (≈ 5.47 µM)	weak
